From ChEMBL document CHEMBL5338777, “Small-Molecule Modulators Targeting Toll-like Receptors for Potential Anticancer Therapeutics” (J Med Chem, 2023)
Values belong to the molecule of their own block, whether it stands above or below them.

Assays:
[1] = target: T1, Toll-like receptor 3 (Homo sapiens, UniProt O15455); assay: Antagonist activity at TLR3 (unknown origin)
T1 sequence (O15455 whole entry): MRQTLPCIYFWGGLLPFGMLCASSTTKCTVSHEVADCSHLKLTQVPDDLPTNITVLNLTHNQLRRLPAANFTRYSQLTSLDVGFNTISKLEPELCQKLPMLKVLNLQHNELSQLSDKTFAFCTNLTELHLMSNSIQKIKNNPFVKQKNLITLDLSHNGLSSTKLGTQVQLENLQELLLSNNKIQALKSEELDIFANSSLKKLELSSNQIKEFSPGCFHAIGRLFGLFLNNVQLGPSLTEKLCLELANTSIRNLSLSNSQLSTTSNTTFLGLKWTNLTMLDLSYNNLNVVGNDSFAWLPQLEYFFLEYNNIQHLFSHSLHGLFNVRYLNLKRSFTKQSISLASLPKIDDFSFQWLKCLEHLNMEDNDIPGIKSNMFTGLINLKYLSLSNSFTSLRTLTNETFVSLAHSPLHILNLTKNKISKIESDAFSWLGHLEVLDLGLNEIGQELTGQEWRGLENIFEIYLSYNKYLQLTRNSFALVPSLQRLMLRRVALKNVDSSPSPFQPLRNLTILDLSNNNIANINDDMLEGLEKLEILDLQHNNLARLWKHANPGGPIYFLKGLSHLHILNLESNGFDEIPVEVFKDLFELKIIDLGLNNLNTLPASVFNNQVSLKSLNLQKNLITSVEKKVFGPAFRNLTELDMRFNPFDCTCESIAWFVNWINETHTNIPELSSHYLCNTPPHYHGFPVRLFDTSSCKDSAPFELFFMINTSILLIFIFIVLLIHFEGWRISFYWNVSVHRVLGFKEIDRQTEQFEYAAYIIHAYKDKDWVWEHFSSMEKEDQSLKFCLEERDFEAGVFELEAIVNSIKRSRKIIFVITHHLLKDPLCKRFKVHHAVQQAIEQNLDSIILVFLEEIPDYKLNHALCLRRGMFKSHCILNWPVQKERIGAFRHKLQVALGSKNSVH

[2] = target: T2, Toll-like receptor 1/2 (Homo sapiens, UniProt O60603+Q15399); assay: Antagonist activity at TLR1/TLR2 in HEK-Blue hTLR2 cells; type: cell-based
[3] = target: T3, TLR2/TLR6 (Homo sapiens, UniProt O60603+Q9Y2C9); assay: Antagonist activity at TLR2/TLR6 in human THP-1 cells; type: cell-based
[4] = target: Toll-like receptor 5 (Homo sapiens, UniProt O60602); assay: Antagonist activity at TLR5 (unknown origin)
[5] = target: T4, Toll-like receptor 8 (Homo sapiens, UniProt Q9NR97)
T4 sequence (Q9NR97 whole entry): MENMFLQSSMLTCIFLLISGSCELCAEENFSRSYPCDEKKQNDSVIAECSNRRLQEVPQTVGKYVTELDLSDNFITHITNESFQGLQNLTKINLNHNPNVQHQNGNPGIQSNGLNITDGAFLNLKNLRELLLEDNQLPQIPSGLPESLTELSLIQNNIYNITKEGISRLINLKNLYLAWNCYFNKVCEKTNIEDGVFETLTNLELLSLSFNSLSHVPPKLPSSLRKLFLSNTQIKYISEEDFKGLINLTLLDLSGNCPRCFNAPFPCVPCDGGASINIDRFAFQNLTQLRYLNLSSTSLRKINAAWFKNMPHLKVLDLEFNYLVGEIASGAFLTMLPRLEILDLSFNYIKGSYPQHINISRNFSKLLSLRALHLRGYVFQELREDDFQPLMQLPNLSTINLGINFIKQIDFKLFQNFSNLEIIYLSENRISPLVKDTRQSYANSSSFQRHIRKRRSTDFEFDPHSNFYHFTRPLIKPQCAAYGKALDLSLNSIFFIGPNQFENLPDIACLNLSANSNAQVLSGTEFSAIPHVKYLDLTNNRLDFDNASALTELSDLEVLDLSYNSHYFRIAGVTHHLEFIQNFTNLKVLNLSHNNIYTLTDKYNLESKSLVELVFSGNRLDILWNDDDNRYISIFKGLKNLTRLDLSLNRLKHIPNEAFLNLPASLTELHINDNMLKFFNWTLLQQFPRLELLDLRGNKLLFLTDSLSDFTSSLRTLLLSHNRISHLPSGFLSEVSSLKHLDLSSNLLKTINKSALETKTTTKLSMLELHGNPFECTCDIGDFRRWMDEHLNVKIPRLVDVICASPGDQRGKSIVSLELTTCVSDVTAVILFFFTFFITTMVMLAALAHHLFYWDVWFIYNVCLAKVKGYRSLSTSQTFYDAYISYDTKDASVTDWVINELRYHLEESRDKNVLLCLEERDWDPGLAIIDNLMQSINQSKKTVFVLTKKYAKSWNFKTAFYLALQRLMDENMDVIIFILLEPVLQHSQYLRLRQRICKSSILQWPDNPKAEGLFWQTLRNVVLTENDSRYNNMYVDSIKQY
Description: (§1) Agonist activity at TLR8 (unknown origin)

[6] = target: T5, Toll-like receptor 7 (Homo sapiens, UniProt Q9NYK1)
T5 sequence (Q9NYK1 whole entry): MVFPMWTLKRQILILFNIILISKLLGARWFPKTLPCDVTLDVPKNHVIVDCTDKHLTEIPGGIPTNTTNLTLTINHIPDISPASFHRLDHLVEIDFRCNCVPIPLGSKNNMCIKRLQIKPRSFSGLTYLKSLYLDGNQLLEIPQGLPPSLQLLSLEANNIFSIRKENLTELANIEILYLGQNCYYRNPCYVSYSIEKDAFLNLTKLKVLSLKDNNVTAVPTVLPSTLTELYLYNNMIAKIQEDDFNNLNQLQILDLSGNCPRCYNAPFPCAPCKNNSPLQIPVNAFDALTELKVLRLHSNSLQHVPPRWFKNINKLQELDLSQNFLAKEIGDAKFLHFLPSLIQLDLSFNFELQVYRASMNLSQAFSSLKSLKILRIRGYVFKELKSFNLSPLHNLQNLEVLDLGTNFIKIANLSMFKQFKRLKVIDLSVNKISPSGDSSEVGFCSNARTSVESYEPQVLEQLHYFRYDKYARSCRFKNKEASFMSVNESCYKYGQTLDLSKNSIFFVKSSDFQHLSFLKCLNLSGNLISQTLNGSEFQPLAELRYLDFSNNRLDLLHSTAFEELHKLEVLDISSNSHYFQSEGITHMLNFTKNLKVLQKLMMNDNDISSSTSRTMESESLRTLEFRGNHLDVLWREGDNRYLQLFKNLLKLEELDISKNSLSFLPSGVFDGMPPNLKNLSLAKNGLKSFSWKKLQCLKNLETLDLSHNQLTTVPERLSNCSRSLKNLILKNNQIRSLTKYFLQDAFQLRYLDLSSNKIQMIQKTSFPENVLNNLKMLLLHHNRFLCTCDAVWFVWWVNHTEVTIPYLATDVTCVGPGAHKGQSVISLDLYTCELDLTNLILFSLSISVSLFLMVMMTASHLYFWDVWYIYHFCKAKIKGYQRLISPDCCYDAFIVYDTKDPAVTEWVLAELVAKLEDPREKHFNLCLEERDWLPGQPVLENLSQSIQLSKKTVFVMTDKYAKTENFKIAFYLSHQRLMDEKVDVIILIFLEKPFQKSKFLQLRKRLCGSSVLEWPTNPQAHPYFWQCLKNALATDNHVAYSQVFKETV
Description: (§2) Agonist activity at TLR7 (unknown origin)

[7] = target: Toll-like receptor 4 (Homo sapiens, UniProt O00206); assay: Inhibition of TLR4 in human HEK293T cells co-expressing MD-2 receptor; type: cell-based
[8] = target: T4, Toll-like receptor 8; assay: Antagonist activity at human TLR8
[9] = target: T2, Toll-like receptor 1/2; assay: Antagonist activity at TLR1/TLR2 (unknown origin); type: protein-complex assay
[10] = target: T2, Toll-like receptor 1/2; assay: Antagonist activity at human TLR1/TLR2; type: protein-complex assay
[11] = target: T3, TLR2/TLR6; assay: Antagonist activity at human TLR2/TLR6; type: protein-complex assay
[12] = target: T2, Toll-like receptor 1/2
Description: Agonist activity at TLR1/TLR2 in human THP-1 cells

[13] = target: T4, Toll-like receptor 8; remark: listed apart in the source
Description: as §1

[14] = target: T5, Toll-like receptor 7; remark: listed apart in the source
Description: as §2

[15] = Antagonist activity at TLR2/TLR4 (unknown origin); parameters: species or system Homo sapiens
[16] = target: T4, Toll-like receptor 8; assay: Binding affinity to human TLR8 expressed in HEK-Blue hTLR8 cells; type: cell-based
[17] = target: T6, Toll-like receptor 4 (Mus musculus, UniProt Q9QUK6); assay: Antagonist activity at TLR4 in mouse peritoneal macrophages assessed as inhibition of NO production; type: cell-based, Peritoneal macrophage
T6 sequence (Q9QUK6 whole entry): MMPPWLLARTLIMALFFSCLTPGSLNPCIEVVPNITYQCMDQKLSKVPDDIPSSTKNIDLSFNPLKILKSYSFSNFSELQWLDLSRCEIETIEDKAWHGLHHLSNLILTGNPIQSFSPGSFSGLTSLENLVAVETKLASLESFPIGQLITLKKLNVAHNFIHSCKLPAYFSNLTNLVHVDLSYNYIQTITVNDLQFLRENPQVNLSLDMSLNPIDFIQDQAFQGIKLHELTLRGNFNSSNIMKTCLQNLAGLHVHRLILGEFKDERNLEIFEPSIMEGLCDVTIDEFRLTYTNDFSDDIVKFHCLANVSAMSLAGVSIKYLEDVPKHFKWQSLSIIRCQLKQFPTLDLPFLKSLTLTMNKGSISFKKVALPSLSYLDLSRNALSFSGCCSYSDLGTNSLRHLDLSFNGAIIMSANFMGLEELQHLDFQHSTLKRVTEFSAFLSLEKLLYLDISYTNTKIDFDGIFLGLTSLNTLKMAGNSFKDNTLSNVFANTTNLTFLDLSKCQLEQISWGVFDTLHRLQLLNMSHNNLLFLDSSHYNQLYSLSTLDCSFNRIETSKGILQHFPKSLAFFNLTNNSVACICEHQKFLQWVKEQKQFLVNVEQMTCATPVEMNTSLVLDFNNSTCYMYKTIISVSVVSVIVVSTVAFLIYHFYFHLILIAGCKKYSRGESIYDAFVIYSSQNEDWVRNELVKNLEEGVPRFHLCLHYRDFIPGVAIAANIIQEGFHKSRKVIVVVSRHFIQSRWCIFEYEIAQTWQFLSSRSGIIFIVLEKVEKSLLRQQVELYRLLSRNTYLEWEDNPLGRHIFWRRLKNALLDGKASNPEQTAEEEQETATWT

[18] = target: T6, Toll-like receptor 4; assay: Antagonist activity at TLR4 in mouse peritoneal macrophages assessed as inhibition of TNF-alpha production; type: cell-based, Peritoneal macrophage
[19] = target: T6, Toll-like receptor 4; assay: Antagonist activity at TLR4 in mouse peritoneal macrophages assessed as inhibition of IL-6 production; type: cell-based, Peritoneal macrophage

T2 sequence (O60603 whole entry): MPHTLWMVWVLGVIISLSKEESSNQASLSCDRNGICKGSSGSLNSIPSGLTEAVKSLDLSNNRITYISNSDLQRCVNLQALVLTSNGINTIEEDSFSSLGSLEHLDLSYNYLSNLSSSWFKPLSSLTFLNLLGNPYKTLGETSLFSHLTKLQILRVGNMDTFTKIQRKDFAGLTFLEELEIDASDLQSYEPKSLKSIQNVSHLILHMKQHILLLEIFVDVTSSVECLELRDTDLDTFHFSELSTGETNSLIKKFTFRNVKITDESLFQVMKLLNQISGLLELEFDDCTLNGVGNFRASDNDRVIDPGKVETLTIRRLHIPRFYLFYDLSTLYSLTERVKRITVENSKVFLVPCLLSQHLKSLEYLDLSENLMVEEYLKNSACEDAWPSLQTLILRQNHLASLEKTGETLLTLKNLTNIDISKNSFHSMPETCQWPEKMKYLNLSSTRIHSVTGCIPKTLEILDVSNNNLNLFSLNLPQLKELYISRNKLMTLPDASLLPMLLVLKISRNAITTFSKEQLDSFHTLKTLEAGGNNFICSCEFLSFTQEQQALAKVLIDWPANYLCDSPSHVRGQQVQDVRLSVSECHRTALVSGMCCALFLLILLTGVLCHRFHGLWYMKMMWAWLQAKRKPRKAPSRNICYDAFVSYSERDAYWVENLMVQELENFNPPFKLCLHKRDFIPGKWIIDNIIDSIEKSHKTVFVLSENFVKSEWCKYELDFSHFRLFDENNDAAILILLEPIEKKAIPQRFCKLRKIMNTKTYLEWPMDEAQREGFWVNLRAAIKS
T2 sequence (Q15399 whole entry): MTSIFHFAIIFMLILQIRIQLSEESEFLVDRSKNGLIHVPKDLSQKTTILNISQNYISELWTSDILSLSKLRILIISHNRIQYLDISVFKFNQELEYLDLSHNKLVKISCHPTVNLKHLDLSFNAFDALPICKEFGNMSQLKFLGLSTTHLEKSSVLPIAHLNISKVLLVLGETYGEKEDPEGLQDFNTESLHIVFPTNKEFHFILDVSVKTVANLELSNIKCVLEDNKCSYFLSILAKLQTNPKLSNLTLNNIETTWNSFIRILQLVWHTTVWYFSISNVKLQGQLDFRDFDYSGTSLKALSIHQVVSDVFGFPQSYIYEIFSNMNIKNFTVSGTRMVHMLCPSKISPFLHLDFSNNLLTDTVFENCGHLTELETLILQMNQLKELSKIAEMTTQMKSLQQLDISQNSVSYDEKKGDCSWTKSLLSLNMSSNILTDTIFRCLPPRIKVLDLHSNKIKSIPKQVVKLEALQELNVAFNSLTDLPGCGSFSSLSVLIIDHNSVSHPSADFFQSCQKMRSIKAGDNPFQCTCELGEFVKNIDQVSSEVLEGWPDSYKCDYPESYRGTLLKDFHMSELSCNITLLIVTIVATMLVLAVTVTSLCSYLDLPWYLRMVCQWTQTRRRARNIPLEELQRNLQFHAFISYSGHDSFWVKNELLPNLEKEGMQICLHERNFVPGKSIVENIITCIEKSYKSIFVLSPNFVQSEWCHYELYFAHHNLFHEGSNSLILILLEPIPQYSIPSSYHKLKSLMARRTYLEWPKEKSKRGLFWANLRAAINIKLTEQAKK
T3 sequence (O60603 whole entry): as the sequence (O60603 whole entry) above
T3 sequence (Q9Y2C9 whole entry): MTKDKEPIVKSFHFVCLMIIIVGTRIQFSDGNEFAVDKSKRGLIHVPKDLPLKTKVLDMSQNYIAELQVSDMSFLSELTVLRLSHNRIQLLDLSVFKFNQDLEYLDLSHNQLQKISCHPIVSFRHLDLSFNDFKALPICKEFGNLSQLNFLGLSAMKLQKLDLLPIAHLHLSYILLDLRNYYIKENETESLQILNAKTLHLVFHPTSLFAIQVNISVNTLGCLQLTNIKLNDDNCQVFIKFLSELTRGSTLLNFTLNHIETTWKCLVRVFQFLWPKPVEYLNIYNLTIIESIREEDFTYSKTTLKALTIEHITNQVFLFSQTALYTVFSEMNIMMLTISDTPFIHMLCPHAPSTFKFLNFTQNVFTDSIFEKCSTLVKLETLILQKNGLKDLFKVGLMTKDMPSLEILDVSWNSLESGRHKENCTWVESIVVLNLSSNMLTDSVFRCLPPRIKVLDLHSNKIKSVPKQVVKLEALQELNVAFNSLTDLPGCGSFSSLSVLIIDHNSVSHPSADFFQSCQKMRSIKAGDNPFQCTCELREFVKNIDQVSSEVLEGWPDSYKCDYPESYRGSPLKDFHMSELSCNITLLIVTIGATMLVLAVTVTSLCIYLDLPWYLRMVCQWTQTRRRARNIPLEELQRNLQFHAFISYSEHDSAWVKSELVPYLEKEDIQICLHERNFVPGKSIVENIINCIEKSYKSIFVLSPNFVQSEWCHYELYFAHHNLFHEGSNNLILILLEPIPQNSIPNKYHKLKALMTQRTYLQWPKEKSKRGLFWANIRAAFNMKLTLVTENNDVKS
Sequence of Toll-like receptor 5 (O60602 whole entry): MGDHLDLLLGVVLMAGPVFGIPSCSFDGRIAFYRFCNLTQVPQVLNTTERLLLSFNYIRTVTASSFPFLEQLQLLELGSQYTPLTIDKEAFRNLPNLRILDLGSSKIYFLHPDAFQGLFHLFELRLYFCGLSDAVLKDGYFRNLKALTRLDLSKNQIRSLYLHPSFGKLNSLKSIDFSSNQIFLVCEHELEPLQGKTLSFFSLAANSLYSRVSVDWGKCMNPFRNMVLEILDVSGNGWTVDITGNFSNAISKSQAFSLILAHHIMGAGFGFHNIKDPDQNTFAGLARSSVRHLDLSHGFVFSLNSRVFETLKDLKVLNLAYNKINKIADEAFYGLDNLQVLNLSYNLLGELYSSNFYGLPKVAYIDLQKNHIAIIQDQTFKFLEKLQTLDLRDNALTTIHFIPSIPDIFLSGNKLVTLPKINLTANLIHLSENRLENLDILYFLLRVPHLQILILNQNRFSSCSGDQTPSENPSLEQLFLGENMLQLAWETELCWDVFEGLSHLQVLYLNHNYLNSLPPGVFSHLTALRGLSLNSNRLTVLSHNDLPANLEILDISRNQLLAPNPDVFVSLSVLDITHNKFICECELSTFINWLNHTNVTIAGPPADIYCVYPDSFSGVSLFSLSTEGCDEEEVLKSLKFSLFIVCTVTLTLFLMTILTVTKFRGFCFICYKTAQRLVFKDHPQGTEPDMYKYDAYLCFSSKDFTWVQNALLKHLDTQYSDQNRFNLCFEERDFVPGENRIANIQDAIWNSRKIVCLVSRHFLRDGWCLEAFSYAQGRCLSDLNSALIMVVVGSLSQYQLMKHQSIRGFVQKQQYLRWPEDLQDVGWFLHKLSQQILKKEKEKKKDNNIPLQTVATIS
Sequence of Toll-like receptor 4 (Homo sapiens, UniProt O00206) (O00206 whole entry): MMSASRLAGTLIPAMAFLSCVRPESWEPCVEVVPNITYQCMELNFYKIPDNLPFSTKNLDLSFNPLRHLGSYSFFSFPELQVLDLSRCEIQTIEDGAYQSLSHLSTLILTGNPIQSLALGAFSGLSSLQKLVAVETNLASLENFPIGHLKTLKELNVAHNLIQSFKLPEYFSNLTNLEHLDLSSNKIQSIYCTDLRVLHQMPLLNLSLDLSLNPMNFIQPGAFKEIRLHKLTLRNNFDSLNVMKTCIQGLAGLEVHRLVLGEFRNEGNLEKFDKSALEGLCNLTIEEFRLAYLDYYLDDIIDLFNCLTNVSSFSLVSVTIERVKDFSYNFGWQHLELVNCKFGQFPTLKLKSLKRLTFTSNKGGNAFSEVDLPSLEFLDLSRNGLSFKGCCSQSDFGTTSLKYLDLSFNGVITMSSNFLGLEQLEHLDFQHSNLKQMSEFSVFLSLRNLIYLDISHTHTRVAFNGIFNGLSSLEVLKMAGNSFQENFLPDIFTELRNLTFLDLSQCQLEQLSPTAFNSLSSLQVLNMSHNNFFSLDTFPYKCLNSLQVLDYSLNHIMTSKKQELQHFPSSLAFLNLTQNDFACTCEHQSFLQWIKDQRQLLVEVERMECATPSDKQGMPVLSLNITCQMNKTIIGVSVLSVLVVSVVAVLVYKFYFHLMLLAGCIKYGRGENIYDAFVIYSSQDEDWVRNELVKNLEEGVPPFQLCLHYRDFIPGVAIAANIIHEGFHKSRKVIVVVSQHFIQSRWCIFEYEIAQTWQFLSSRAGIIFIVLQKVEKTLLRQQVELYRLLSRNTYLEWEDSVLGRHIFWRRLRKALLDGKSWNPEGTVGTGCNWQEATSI

SMILES: O=C(N[C@H](Cc1ccccc1)C(=O)O)c1cc2c(s1)CCCCC2
- IC50 [1]: 154000 nM

SMILES: COc1cccc(/C=N/c2cccc(C(=O)O)c2C)c1O
- IC50 [2]: 19700 nM
- IC50 [3]: 37600 nM

SMILES: CCCN(CCC)C(=O)C1=Cc2ccc(-c3cccc(C(=O)CC)c3)cc2N=C(N)C1
- EC50 [5]: 8 nM
- EC50 [6]: 16 nM

SMILES: CCCCCCCCCC(CCCCCCCCC)CC(=O)OC[C@H]1O[C@H](O[C@H]2O[C@H](COC(=O)CC(CCCCCCCCC)CCCCCCCCC)[C@@H](O)[C@H](O)[C@H]2O)[C@H](O)[C@@H](O)[C@@H]1O [VIZANTIN]
- IC50 [7]: 53 nM

SMILES: CCCCCCOC(=O)c1cc(O)c(=O)c2c(O)c(O)c(OC)cc2c1
- IC50 [9]: 580 nM
- IC50 [10]: 9100 nM
- IC50 [11]: 5600 nM

SMILES: CCc1nc2c(N)nc3ccccc3c2n1CCCCNS(C)(=O)=O [CPG-52852]
- EC50 [6]: ~3000 nM

SMILES: COc1cccc(C=O)c1O
- IC50 [2]: 24200 nM
- IC50 [3]: 37200 nM

SMILES: CCOC(=O)c1ccc(CC(=O)c2ccc(O)c(O)c2O)o1
- IC50 [10]: 1700 nM
- IC50 [11]: 5700 nM

SMILES: CCOC(=O)c1c(NC(=O)N2CCN(C)CC2)sc2c1CCC2
- EC50 [12]: 550 nM

SMILES: COCCOc1nc(N)c2[nH]c(=O)n(Cc3ccccc3)c2n1
- EC50 [6]: 140 nM

SMILES: O=c1occ2c3c(ccc(O)c13)Oc1ccc(O)cc1-2
- IC50 [15]: ~10000 nM

SMILES: CCCN(CCC)C(=O)C1=Cc2ccc(-c3ccc(C(=O)N4CCCC4)cc3)cc2N=C(N)C1 [MOTOLIMOD]
- EC50 [5]: ~100 nM

SMILES: Cc1cccc(-c2ccnc3c(C(N)=O)cnn23)c1
- Kd [16]: 220 nM

SMILES: CCCN(CCC)C(=O)C1=Cc2ccc(C(=O)N3CC4(C3)CN(c3ccc(C)cc3)C4)cc2N=C(N)C1
- EC50 [6]: > 100 nM

SMILES: CCCCc1nc2c(N)nc3ccccc3c2o1
- EC50 [13]: 180 nM

SMILES: CCOC(=O)C1=CCCC[C@H]1S(=O)(=O)Nc1ccc(F)cc1Cl [RESATORVID]
- IC50 [17]: 1.8 nM
- IC50 [18]: 1.9 nM
- IC50 [19]: 1.3 nM

Further lines, results first:

- IC50 [4]: 3130 nM
SMILES: c1ccc(-n2c(Sc3ncnc4c3sc3ncccc34)nnc2-c2ccncc2)cc1

- IC50 [8]: 0.8 nM
SMILES: COc1ccc2c(-c3cnc(OCc4ccccc4)c(C)c3)ccnc2c1

- EC50 [6]: > 100 nM
SMILES: CCCN(CCC)C(=O)C1=Cc2ccc(C(=O)NC(c3ccccc3)c3ccccc3)cc2N=C(N)C1

- EC50 [13]: 56 nM
- EC50 [14]: 190 nM
SMILES: CCCCn1cc2c(n1)c(N)nc1ccccc12

- IC50 [1]: 3440 nM
SMILES: O=C(N[C@H](Cc1ccccc1)C(=O)O)c1sc2cc(F)ccc2c1Cl

- IC50 [4]: 50500 nM
SMILES: Cc1cc(C)c2c(n1)sc1c(Sc3nnc(-c4ccncc4)o3)ncnc12

- IC50 [8]: 0.1 nM
SMILES: COc1ccc2c(-c3ccc(OCCCCO)c(C)c3)ccnc2c1

- IC50 [4]: 3380 nM
SMILES: c1cnc2sc3c(Sc4nnc(-c5ccncc5)o4)ncnc3c2c1
